System: bacterial strain LF82 binding to the glycoprotein BSA-(Mannose)3 (FimH antagonists)
Test: Bacterial Binding Assay (BBA)
Format: cell-based, Escherichia coli
Details: read-out: Bacterial Binding Assay IC50 ± SEM
Excerpt: The purpose of the Bacterial Binding Assay (BBA) is to determine the inhibition activity of selective FimH antagonists on the bacterial strain LF82 binding to the glycoprotein BSA-(Mannose)3.
Below is a list of the Materials used to run the BBA are described below. • 1. LB broth: Supplier: Gibco, #10855 • 2. D-PBS: Supplier: Wisent, #311-425-CL • 3. LB agar plates • 4. 96-well black plate (high binding): Supplier: Costar, #3925 • 5. TopSeal™-A adhesive sealing films; Supplier PerkinElmer, #6005185 • 6. Carbonate-bicarbonate buffer pH 9.6 tablets, Supplier: Medicago, #09-8922-24 • 7. Water, Supplier: Gibco, #15230-162 • 8. Bovine serum albumin (BSA): Supplier: Sigma, #A-7888 • 9. (Man)3-BSA (α1-3, α1-6 Mannotriose-BSA, 1 mg), V-Labs, #NGP1336, lot# HGDX37-169-1 • 10. Tween 20: Supplier: Sigma, #P9416 • 11. Bright-Glo Luciferase Assay System: Supplier: Promega, #E2610 • 12. LF82/Luciferase strain: Invasive ability of an Escherichia coli strain isolated from the ileal mucosa of a patient with Crohn's disease. Boudeau J, Glasser A L, Masseret E, Joly B, Darfeuille-Michaud A, Infect Immun. 1999, 67(9), 4499-509
Solutions and buffers used to run the BBA are described below. • 1. 0.04M carbonate-bicarbonate buffer (coating buffer) • 2. 40 μg/mL BSA-(Man)3: Dissolve 1 mg of (Man)3-BSA in 25 mL of water. • 3. 4000 μg/mL BSA • 4. 40 μg/mL BSA • 5. 1 μg/mL BSA-(Man)3: 150 μL of 40 μg/mL BSA-(Man)3+5.85 mL of 40 μg/mL BSA • 6. 0.5 μg/mL BSA-(Man)3 in 0.02M carbonate-bicarbonate buffer. • 7. 20 μg/mL BSA in 0.02M carbonate-bicarbonate buffer • 8. Blocking buffer (2% BSA/DPBS): 1 g of BSA in 50 mL D-PBS • 9. 2× binding buffer (0.2% BSA/D-PBS): 5 mL of blocking buffer+45 mL D-PBS. • 10. Washing buffer (D-PBS/0.01% Tween 20): 10 μL of Tween 20 in 100 mL D-PBS. • 11. 1× Bright-Glo Luciferase substrate: Dilute 1:1 the Bright-Glo Luciferase Assay System with D-PBS
The experimental protocol used in this example to run the BBA is described below.
Overnight culture of LF82/Luciferase strain: Into two Falcon 50 mL tubes, add 20 mL of LB+20 μL of 50 mg/mL Kanamycin and inoculate with a loop from glycerol stock of the LF82/Luciferase strain. Incubate overnight at 37° C. with no shaking.
Glycoprotein coating of 96-well plates: Add 100 μL/well of 0.5-2 μg/mL BSA-(Man)3. 20 μg/mL BSA is used as the control background. Seal plate using an adhesive sealing film and incubate overnight at room temperature. Wash the 96-well plate three times with 150 μL/well of D-PBS, add 170 μL/well of blocking solution and incubate 45 min (minimum) at room temperature.
Preparation of bacterial suspension: Mix the two cultures tubes (40 mL) and perform a 1:10 dilution in LB (900 μl LB+100 μl culture. Measure optical density (OD) of the bacterial cultures. OD1 ˜5×10^8 cells/mL. Centrifuge LF82 culture for 20 min at 3500 rpm at room temperature. Re-suspend bacterial pellet in D-PBS and centrifuge again for 20 min at 3500 rpm. Re-suspend bacterial pellet in D-PBS to obtain a bacterial concentration of 2×10^9 bacteria/mL. Dilute 1/10 in D-PBS to obtain a final bacterial concentration of 2×10^8 bacteria/mL (=107 bacteria/50 μL). Perform 1/10 serial dilutions in LB of each bacterial suspension, plate 10 μL of dilutions on LB agar plates (final dilutions of 10^−7) and incubate overnight at 37° C. and count CFUs to determine the actual bacteria density in the assay.
Bacterial binding assay: Add 147 μL 2× binding buffer to compound plate (containing 3 μL of compound). After blocking step is performed (at least 45 min), wash plates three times with 200 μL/well of D-PBS. With a 100 μL multichannel manual pipettor, add 50 μL/well of compound diluted in 2× binding buffer. With a 100 μL multichannel manual pipettor, add 50 μL/well of bacterial suspension. Agitate at slow speed for 1 min and incubate 40-75 min at room temperature. Wash 5 times with 150 μL/well of washing buffer and then once with D-PBS. Add 100 μL/well of 1× Bright-Glo Luciferase substrate. […]

Structure (SMILES) | IC50 [nM]
CCCCc1cc(C#C[C@H]2O[C@H](CO)[C@@H](O)[C@H](O)[C@@H]2O)c2[nH]c(=O)[nH]c2c1 [Compound 15, 6-butyl-4-[2-[(2R,3S,4R,5S,6R)-3,4,5-trihydroxy-6-(hydroxymethyl)tetrahydropyran-2-yl]ethynyl]-1,3-dihydrobenzimidazol-2-one] | 0.7 ± 0.2
CCCCn1ncc2c(C#C[C@H]3O[C@H](CO)[C@@H](O)[C@H](O)[C@@H]3O)cccc21 [Compound 21, (2R,3S,4R,5S,6R)-2-[2-(1-butylindazol-4-yl)ethynyl]-6-(hydroxymethyl)tetrahydropyran-3,4,5-triol] | 22 ± 0.5
CCOC(=O)C1CC=C(c2cc(C#C[C@H]3O[C@H](CO)[C@@H](O)[C@H](O)[C@@H]3O)c3[nH]ncc3c2)CC1 (stereo partly drawn) [Compound 71, ethyl 4-[7-[2-[(2R,3S,4R,5S,6R)-3,4,5-trihydroxy-6-(hydroxymethyl)tetrahydropyran-2-yl]ethynyl]-1H-indazol-5-yl]cyclohex-3-ene-1-carboxylate] | 0.6 ± 0.2
Cc1nnc(-c2ccc(-c3cc(C#C[C@H]4O[C@H](CO)[C@@H](O)[C@H](O)[C@@H]4O)c4[nH]ncc4c3)cc2)o1 [Compound 39, (2R,3S,4R,5S,6R)-2-(hydroxymethyl)-6-[2-[5-[4-(5-methyl-1,3,4-oxadiazol-2-yl)phenyl]-1H-indazol-7-yl]ethynyl]tetrahydropyran-3,4,5-triol] | 0.2 ± 0.05
O=C(c1cc(C#C[C@H]2O[C@H](CO)[C@@H](O)[C@H](O)[C@@H]2O)c2[nH]ncc2c1)N1CCOCC1 [Compound 61, morpholino-[7-[2-[(2R,3S,4R,5S,6R)-3,4,5-trihydroxy-6-(hydroxymethyl)tetrahydropyran-2-yl]ethynyl]-1H-indazol-5-yl]methanone] | 0.6 ± 0.1
CCCCc1cc(C#C[C@H]2O[C@H](CO)[C@@H](O)[C@H](O)[C@@H]2O)c2[nH]ncc2c1 [Compound 24, (2R,3S,4R,5S,6R)-2-[2-(5-butyl-1H-indazol-7-yl)ethynyl]-6-(hydroxymethyl)tetrahydropyran-3,4,5-triol] | 1 ± 0.2
CN(C)C(=O)c1cc(C#C[C@H]2O[C@H](CO)[C@@H](O)[C@H](O)[C@@H]2O)c2[nH]ncc2c1 [Compound 59, N,N-dimethyl-7-[2-[(2R,3S,4R,5S,6R)-3,4,5-trihydroxy-6-(hydroxymethyl)tetrahydropyran-2-yl]ethynyl]-1H-indazole-5-carboxamide] | 0.4 ± 0.2
Cc1ccc(C)c(-c2cc(C#C[C@H]3O[C@H](CO)[C@@H](O)[C@H](O)[C@@H]3O)c3[nH]ncc3c2)c1 [Compound 82, (2R,3S,4R,5S,6R)-2-[2-[5-(2,5-dimethylphenyl)-1H-indazol-7-yl]ethynyl]-6-(hydroxymethyl)tetrahydropyran-3,4,5-triol] | 1
COc1ccc(Cn2ncc3cc(Br)cc(C#C[C@H]4O[C@H](CO)[C@@H](O)[C@H](O)[C@@H]4O)c32)cc1 [Compound 18, (2R,3S,4R,5S,6R)-2-[2-[5-bromo-1-[(4-methoxyphenyl)methyl]indazol-7-yl]ethynyl]-6-(hydroxymethyl)tetrahydropyran-3,4,5-triol] | 67 ± 26
Cc1cc(C#C[C@H]2O[C@H](CO)[C@@H](O)[C@H](O)[C@@H]2O)c2[nH]ccc2c1 [Compound 4, (2R,3S,4R,5S,6R)-2-(hydroxymethyl)-6-[2-(5-methyl-1H-indol-7-yl)ethynyl]tetrahydropyran-3,4,5-triol] | 46 ± 12
OC[C@H]1O[C@H](C#Cc2cc(C#Cc3ccccc3)cc3cn[nH]c23)[C@@H](O)[C@@H](O)[C@@H]1O [Compound 45, (2R,3S,4R,5S,6R)-2-(hydroxymethyl)-6-[2-[5-(2-phenylethynyl)-1H-indazol-7-yl]ethynyl]tetrahydropyran-3,4,5-triol] | 15 ± 3
O=c1ccc(-c2cc(C#C[C@H]3O[C@H](CO)[C@@H](O)[C@H](O)[C@@H]3O)c3[nH]ncc3c2)c[nH]1 [Compound 74, 5-[7-[2-[(2R,3S,4R,5S,6R)-3,4,5-trihydroxy-6-(hydroxymethyl)tetrahydropyran-2-yl]ethynyl]-1H-indazol-5-yl]-1H-pyridin-2-one] | 0.3 ± 0.05
OC[C@H]1O[C@H](C#Cc2cc(Cl)cc3cn[nH]c23)[C@@H](O)[C@@H](O)[C@@H]1O [Compound 6, (2R,3S,4R,5S,6R)-2-[2-(5-chloro-1H-indazol-7-yl)ethynyl]-6-(hydroxymethyl)tetrahydropyran-3,4,5-triol] | 24 ± 5
NS(=O)(=O)c1cccc(-c2cc(C#C[C@H]3O[C@H](CO)[C@@H](O)[C@H](O)[C@@H]3O)c3[nH]ncc3c2)c1 [Compound 41, 3-[7-[2-[(2R,3S,4R,5S,6R)-3,4,5-trihydroxy-6-(hydroxymethyl)tetrahydropyran-2-yl]ethynyl]-1H-indazol-5-yl]benzenesulfonamide] | 0.4 ± 0.04
OC[C@H]1O[C@H](C#Cc2cc(C#CC3CC3)cc3cn[nH]c23)[C@@H](O)[C@@H](O)[C@@H]1O [Compound 43, (2R,3S,4R,5S,6R)-2-[2-[5-(2-cyclopropylethynyl)-1H-indazol-7-yl]ethynyl]-6-(hydroxymethyl)tetrahydropyran-3,4,5-triol] | 2 ± 1
COC(=O)c1cc(C#C[C@H]2O[C@H](CO)[C@@H](O)[C@H](O)[C@@H]2O)c2[nH]ncc2c1 [Compound 57, Methyl 7-[2-[(2R,3S,4R,5S,6R)-3,4,5-trihydroxy-6-(hydroxymethyl)tetrahydropyran-2-yl]ethynyl]-1H-indazole-5-carboxylate] | 2 ± 0.6
CN(CC#Cc1cc(C#C[C@H]2O[C@H](CO)[C@@H](O)[C@H](O)[C@@H]2O)c2[nH]ncc2c1)Cc1ccccc1 [Compound 51, (2R,3S,4R,5S,6R)-2-[2-[5-[3-[benzyl(methyl)amino]prop-1-ynyl]-1H-indazol-7-yl]ethynyl]-6-(hydroxymethyl)tetrahydropyran-3,4,5-triol] | 3 ± 0.4
OC[C@H]1O[C@H](C#Cc2cc(-c3ccc(F)cc3F)cc3cn[nH]c23)[C@@H](O)[C@@H](O)[C@@H]1O [Compound 81, (2R,3S,4R,5S,6R)-2-[2-[5-(2,4-difluorophenyl)-1H-indazol-7-yl]ethynyl]-6-(hydroxymethyl)tetrahydropyran-3,4,5-triol] | 0.4 ± 0.2
Cc1ccccc1-c1cc(C#C[C@H]2O[C@H](CO)[C@@H](O)[C@H](O)[C@@H]2O)c2[nH]ncc2c1 [Compound 26] | 0.7 ± 0.3
O=S1(=O)CCN(CC#Cc2cc(C#C[C@H]3O[C@H](CO)[C@@H](O)[C@H](O)[C@@H]3O)c3[nH]ncc3c2)CC1 [Compound 49, (2R,3S,4R,5S,6R)-2-[2-[5-[3-(1,1-dioxo-1,4-thiazinan-4-yl)prop-1-ynyl]-1H-indazol-7-yl]ethynyl]-6-(hydroxymethyl)tetrahydropyran-3,4,5-triol] | 26 ± 0.5
O=c1cc(-c2cc(C#C[C@H]3O[C@H](CO)[C@@H](O)[C@H](O)[C@@H]3O)c3[nH]ncc3c2)cc[nH]1 [Compound 85, 4-[7-[2-[(2R,3S,4R,5S,6R)-3,4,5-trihydroxy-6-(hydroxymethyl)tetrahydropyran-2-yl]ethynyl]-1H-indazol-5-yl]-1H-pyridin-2-one] | 0.4 ± 0.2
